Test results reported in publication PMC8455565 (Scientific Reports, 2021).

Columns and labels:
BTK [1] = target: BTK (Homo sapiens, UniProt Q06187); assay: hBTK Lanthascreen biochemical activity
BTK [2] = target: T1, BTK (Rattus norvegicus, UniProt Q5S255); assay: BTK occupancy molecular probe assay in rat PBMCs; assay type: cell-based; settings: 1 h treatment, biotinylated probe; read-out: IC50, BTK target modulation (occupancy) in rat PBMCs
T1 construct: endogenous in cells; host or cells: rat PBMCs (normal rats in vitro; CIA model rats ex vivo)
Description: The BTK occupancy assay and analysis of BTK phosphorylation inhibition were performed as described previously. Briefly, isolated PBMCs were lysed with RIPA buffer (R0278, Sigma-Aldrich) containing 1 × protease/phosphatase inhibitor (1861281, Thermo Fisher Scientific) and EDTA (1861274, Thermo Fisher Scientific). The supernatants were collected by 10 min at 14,000 × g in microcentrifuge at 4 °C and biotinylated probe was added to bind free BTK for 1 h. Rabbit anti-BTK Ab (1:5000 in 1% BSA) bound the captured BTK/probe complex, and was detected with […] antibody conjugated with HRP then ultra-TMB solution was added to each well for the free BTK analysis. Analysis of free and total BTK levels for the phase I study was conducted by Cambridge Biomedical Inc. (MA, USA). BTK occupancy was calculated by taking the free BTK and total BTK results from a given donor and used the following formula: %BTKoccupancy=100%-FreeBTK/totalBTK×100.
BTK occupancy (%) was calculated from the free BTK percentage, which was compared with that of the untreated control group. […] Bone erosion ( →) was quantified a subchondral and bone destruction and synovitis (*) was scored degree of pannus formation, including synovial inflammation, hypertrophy, interstitial edema, and fibrosis (H&E). Cartilage damage (□) was semiquantitatively scored as an intensity of Safranin-O staining (red). […]

STAT5 (Y694) = assay: IL-2-stimulated STAT5 phosphorylation (JAK3 signaling) in T and NK cells; assay type: cell-based, human; settings: 30 μM
Description: (§1) The analysis measured 94 intracellular signaling nodes (81 phosphorylation sites, 10 total protein levels and 3 methylation/acetylation sites) in stimulated immune cells, including B cells (IgM plus CD40L), CD4 + and CD8 + T cells (IL-2; CD3 plus CD28), monocytes (M-CSF), NK cells (IL-2), and granulocytes (LPS).

NK cells (LPS) = assay: High-dimensional phosphorylation analysis, NK cells (LPS); assay type: cell-based, human; settings: 30 µM, 60'
TEC = target: T2, TEC (Homo sapiens, UniProt P42680); assay: Kinase biochemical assay (FRET), TEC; settings: read-out: inhibitory activity on TEC
T2 sequence (P42680 1-631): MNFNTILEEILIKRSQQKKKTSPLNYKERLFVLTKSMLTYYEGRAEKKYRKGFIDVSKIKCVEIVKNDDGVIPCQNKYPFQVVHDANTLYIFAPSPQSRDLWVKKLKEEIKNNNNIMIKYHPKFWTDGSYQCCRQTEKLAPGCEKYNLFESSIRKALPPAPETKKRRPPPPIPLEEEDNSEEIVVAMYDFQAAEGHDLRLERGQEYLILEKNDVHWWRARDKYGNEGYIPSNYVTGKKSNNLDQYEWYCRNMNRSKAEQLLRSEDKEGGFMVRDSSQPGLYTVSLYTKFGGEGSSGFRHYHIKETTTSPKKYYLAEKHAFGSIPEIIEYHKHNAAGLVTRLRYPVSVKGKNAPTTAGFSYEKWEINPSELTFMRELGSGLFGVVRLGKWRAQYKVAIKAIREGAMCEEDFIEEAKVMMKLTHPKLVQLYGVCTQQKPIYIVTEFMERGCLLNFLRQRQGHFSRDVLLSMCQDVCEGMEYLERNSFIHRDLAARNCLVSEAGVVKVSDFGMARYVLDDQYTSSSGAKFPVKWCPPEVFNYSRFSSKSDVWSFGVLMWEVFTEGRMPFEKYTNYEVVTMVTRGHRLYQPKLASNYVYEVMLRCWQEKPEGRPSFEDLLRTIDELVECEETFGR

Neutrophils (LPS) = assay: High-dimensional phosphorylation analysis, Neutrophils (LPS); assay type: cell-based, human; settings: 30 µM, 15'
Description: as §1

BTK (Homo sapiens, UniProt Q06187), sequence (Q06187 whole entry): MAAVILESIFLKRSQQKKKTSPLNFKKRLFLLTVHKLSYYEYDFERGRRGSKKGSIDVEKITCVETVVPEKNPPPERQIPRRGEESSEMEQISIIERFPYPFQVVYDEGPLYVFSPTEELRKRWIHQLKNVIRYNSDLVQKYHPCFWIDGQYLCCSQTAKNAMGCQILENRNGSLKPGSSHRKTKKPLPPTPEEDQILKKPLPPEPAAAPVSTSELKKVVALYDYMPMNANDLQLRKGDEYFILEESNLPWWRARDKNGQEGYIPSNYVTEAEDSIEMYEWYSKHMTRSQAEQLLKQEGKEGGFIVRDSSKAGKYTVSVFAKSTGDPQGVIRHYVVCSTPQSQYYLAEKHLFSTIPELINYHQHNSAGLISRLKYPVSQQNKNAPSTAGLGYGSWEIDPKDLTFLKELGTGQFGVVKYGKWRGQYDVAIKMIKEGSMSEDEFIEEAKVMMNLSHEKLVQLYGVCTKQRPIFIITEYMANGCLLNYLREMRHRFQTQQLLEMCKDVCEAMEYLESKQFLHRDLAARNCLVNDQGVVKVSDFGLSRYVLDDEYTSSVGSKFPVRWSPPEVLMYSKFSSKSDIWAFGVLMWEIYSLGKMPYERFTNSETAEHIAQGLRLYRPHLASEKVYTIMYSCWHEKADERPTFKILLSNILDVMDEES
T1 sequence (Q5S255 1-660): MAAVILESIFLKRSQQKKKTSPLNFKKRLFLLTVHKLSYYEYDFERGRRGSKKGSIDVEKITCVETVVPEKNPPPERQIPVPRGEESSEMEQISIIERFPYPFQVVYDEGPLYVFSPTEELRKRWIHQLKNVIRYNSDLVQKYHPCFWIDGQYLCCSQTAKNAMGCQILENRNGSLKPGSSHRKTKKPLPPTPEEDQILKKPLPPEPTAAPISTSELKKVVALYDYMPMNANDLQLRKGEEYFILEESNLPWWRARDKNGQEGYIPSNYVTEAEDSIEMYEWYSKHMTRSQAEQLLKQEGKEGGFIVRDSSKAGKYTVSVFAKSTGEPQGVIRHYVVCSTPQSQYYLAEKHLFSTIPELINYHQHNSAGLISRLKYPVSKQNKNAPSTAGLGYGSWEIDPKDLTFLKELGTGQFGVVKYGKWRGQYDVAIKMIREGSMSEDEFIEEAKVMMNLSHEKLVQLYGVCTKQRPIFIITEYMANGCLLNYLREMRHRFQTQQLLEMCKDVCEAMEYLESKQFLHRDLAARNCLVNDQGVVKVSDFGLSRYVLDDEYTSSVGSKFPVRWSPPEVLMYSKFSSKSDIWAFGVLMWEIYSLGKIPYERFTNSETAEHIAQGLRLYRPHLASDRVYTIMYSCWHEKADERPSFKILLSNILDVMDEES

IC50 (BTK [1]): 6 nM
IC50 (BTK [2]): 14.6 ± 3.3 nM
IC50 (TEC): < 10 nM
Compound: C=CC(=O)Nc1cccc(Oc2nc(Nc3ccc(N4CCN(C)CC4)cc3)nc3ccoc23)c1 [Poseltinib]
IL-2-stimulated phosphorylation of STAT5 (Y694) (STAT5 (Y694); CD4 + T cells): inhibited
IL-2-stimulated phosphorylation of STAT5 (Y694) (STAT5 (Y694); CD8 + T cells): inhibited
IL-2-stimulated phosphorylation of STAT5 (Y694) (STAT5 (Y694); NK cells): inhibited
AKT1 phosphorylation, Log2Ratio Stim/Control (NK cells (LPS)): 0.44
Akt phosphorylation, Log2Ratio Stim/Control (NK cells (LPS)): 0.54
BTK phosphorylation, Log2Ratio Stim/Control (NK cells (LPS)): -0.04
GSK3B phosphorylation, Log2Ratio Stim/Control (NK cells (LPS)): 0.91
MAP2K1 phosphorylation, Log2Ratio Stim/Control (NK cells (LPS)): 0.51
MNK phosphorylation, Log2Ratio Stim/Control (NK cells (LPS)): 0.07
P38 phosphorylation, Log2Ratio Stim/Control (NK cells (LPS)): 0.36
RPS6 phosphorylation, Log2Ratio Stim/Control (NK cells (LPS)): 0.30
SMAD2 phosphorylation, Log2Ratio Stim/Control (NK cells (LPS); first SMAD2 line): 0.67
SMAD2 phosphorylation, Log2Ratio Stim/Control (NK cells (LPS); second SMAD2 line): 0.07
4ebp1 phosphorylation, Log2Ratio Stim/Control (Neutrophils (LPS)): 0.28
AKT1 phosphorylation, Log2Ratio Stim/Control (Neutrophils (LPS)): 0.66
AMPK phosphorylation, Log2Ratio Stim/Control (Neutrophils (LPS)): 0.29
Akt phosphorylation, Log2Ratio Stim/Control (Neutrophils (LPS)): 0.66
BTK phosphorylation, Log2Ratio Stim/Control (Neutrophils (LPS)): -0.25
HSP27 phosphorylation, Log2Ratio Stim/Control (Neutrophils (LPS)): 0.34
MAP2K1 phosphorylation, Log2Ratio Stim/Control (Neutrophils (LPS)): 2.38
MNK phosphorylation, Log2Ratio Stim/Control (Neutrophils (LPS)): 0.40
RPS6 phosphorylation, Log2Ratio Stim/Control (Neutrophils (LPS)): 0.66
